For 63 compounds, logP and chromatographic logP results are on record in patent US20100022559A1, “BISOXIMES AS FUNGICIDES” (BAYER CROPSCIENCE AG, priority 2006, published 2010).

The first series can be described thus: logP determination by HPLC on a reversed-phase column (C 18), EEC Directive 79/831 Annex V.A8. In kind it is physicochemical. Conditions: [a] acidic range, pH 2.3, 0.1% aqueous phosphoric acid and acetonitrile. How it is done:
The stated logP values were determined in accordance with EEC Directive 79/831 Annex V.A8 by HPLC (high performance liquid chromatography) on a reversed-phase column (C 18). Temperature: 43° C.
As to `C/C(=N\OCC(C)(C)CON)c1ccc(C)c(C)n1` [XII-6], the logP is 0.98^[a].

The same series, now with this note: [b] LC-MS, acidic range, pH 2.7, 0.1% aqueous formic acid and acetonitrile.
Turning to `C/C(=N\OCC(C)(C)CON)c1cccc(C)n1` [XII-4], the logP was 1.11^[b].

On to `C/C(=N\OCC(C)(C)CON)c1ccc(C)c(C)n1` [XII-6], for which the logP is 0.98^[b].

Staying with this series, now noted: [c] LC-MS, neutral range, pH 7.8, 0.001 molar aqueous ammonium bicarbonate solution and acetonitrile.
On to `C/C(=N\OCC(C)(C)CON)c1ccc(C)c(C)n1` [XII-6], for which the logP was 2.94^[c].

The same series, now with this note: method marked [a] in Table 1.
`CCC(=NOCC(C)CON=C(CC)c1cc(C)cc(C)n1)c1cc(C)cc(C)n1` (mixture of isomers) [Compound 572]: the logP is 3.23^[a].

Turning to `CC(=NOCC(C)(C)CON=C(C)c1nccn1C)c1nccn1C` [compound 576], the logP is 1.07^[a].

The series is the same for the next values; noted with them: method marked [b] in Table 1.
In the case of `C/C(=N\OCC1(CO/N=C(\C)c2ccc(C)c(C)n2)CC(c2cccc(Cl)c2)=NO1)c1ccc(C)c(C)n1` [compound 635], the logP was 4.51^[b].

Take `Cc1nc(/C(N)=N/OCc2ccccc2CO/N=C(\N)c2nc(C)c(Cl)c(C)n2)nc(C)c1Cl` [compound 709]: the logP is 3.41^[b].

As to `CC(=NOCC(CON=C(C)c1ccc(C)c(C)n1)Cc1ccccc1)c1ccc(C)c(C)n1` (stereo not shown) [Compound 581], the logP is 5.01^[b].

Regarding `CC(=NOCCC(C)CCON=C(C)c1ccccn1)c1ccccn1` (stereo not shown) [compound 747], the logP was 4.43^[b].

As to `N/C(=N\OCc1ccc(CO/N=C(\N)c2nc(C3CC3)cc(C3CC3)n2)cc1)c1nc(C2CC2)cc(C2CC2)n1` [compound 720], the logP is 3.76^[b].

Take `CC(=NOCC(C)(C)CON=C(C)c1sc(C)nc1C)c1cccc(C)n1` [compound 546]: the logP is 4.37^[b].

For `CC(=NOCCCON=C(C)c1ccc(C)c(C)n1)c1cccc(C)n1` [Compound 699], the logP was 2.53^[b].

For the compound `N/C(=N\OCc1cccc(CO/N=C(\N)c2ncc(F)cc2F)c1)c1ncc(F)cc1F` [compound 714], the logP is 2.96^[b].

Consider `Cc1cc(C)nc(/C(N)=N/OCc2ccc(CO/N=C(\N)c3cc(C)cc(C)n3)cc2)c1` [compound 733], for which the logP is 3,59^[b].

As for `CC(=NOCC(C)CON=C(C)c1ccc[nH]1)c1ccc[nH]1` (mixture of isomers) [compound 566], the logP was 3.47^[b].

For `CC(=NOC(=O)N(C)C(=O)ON=C(C)c1cccc(C)n1)c1cccc(C)n1` [compound 744], the logP is 2.57^[b].

For `COCc1nc(/C(N)=N/OCc2cccc(CO/N=C(\N)c3nc(COC)c(C)c(COC)n3)c2)nc(COC)c1C` [compound 713], the logP is 2.06^[b].

Staying with this series, now noted: method marked [c] in Table 1.
For the compound `CC(=NOCC(CON=C(C)c1ccc(C)c(C)n1)Cc1ccccc1)c1ccc(C)c(C)n1` (stereo not shown) [Compound 581], the logP is 7.05^[c].

`CC(=NOCCCON=C(C)c1ccc(C)c(C)n1)c1cccc(C)n1` [Compound 699]: the logP was 5.33^[c].

As for `CC(=NOCC(C)CON=C(C)c1ccc[nH]1)c1ccc[nH]1` (mixture of isomers) [compound 566], the logP was 3.62^[c].

The series is the same for the next values; noted with them: method marker [a] (footnote not shown); isomer A / isomer B / isomer mixture as noted in the cell.
`CC(=NOCC(C)CON=C(C)c1ccnc(C)n1)c1ccnc(C)n1` (stereo not shown) [compound 168]: the logP was 3.57^a].

Turning to `CC(=NOCC(C)CON=C(C)c1ccc(Cl)nc1)c1ccc(Cl)nc1` (stereo not shown) [compound 106], the logP is 4.79^[a].

For `CCCC(=NOCCCON=C(CCC)c1ncccc1C)c1ncccc1C` (single isomer, unassigned) [compound 98], the logP is 4.83^[a] (isomer B).

Take `Cc1cccc(C(=NOCC(C)CON=C(c2cccc(C)n2)C2CC2)C2CC2)n1` (single isomer, unassigned) [compound 162]: the logP is 3.28^[a] (isomer A).

As for `Cc1cccnc1C(CC(C)C)=NOCC(C)CON=C(CC(C)C)c1ncccc1C` (single isomer, unassigned) [compound 102], the logP was 6.50^[a] (isomer B).

With `CC(=NOCCON=C(C)c1cccc(C)n1)c1cccc(C)n1` (mixture of isomers) [Compound 13], the logP was 2.22^[a].

Consider `CC(=NOCC(C)CON=C(C)c1sc(C)nc1C)c1sc(C)nc1C` (mixture of isomers) [compound 121], for which the logP is 4.02^[a].

In the case of `CCC(=NOCC(C)CON=C(CC)c1ncccc1C)c1ncccc1C` (single isomer, unassigned) [compound 101], the logP is 4.23^[a] (isomer B).

The same series, now with this note: method marker [b]; isomer A / isomer B / isomer mixture as noted in the cell.
With `C=C(CON=C(C)c1ncccc1Cl)CON=C(C)c1ncccc1Cl` [compound 144], the logP is 3.64^[b].

Regarding `C=C(CON=C(C)c1nc(C)c(C)s1)CON=C(C)c1nc(C)c(C)s1` (single isomer, unassigned) [compound 68], the logP was 5.25^[b].

For `C=C(CON=C(C)c1ccc(Cl)s1)CON=C(C)c1ccc(Cl)s1` [compound 20], the logP was 5.88^[b].

For the compound `C=C(CON=C(C)c1cccc(C)n1)CON=C(C)c1cccc(C(C)=O)n1` [Compound 117], the logP was 4.43^[b].

In the case of `C=C(CON=C(C)c1cccc(OC)n1)CON=C(C)c1cccc(OC)n1` [compound 145], the logP is 5.89^[b].

Regarding `C=C(CON=C(C)c1cccc(C)n1)CON=C(C)c1nc2ccccc2s1` [compound 218], the logP was 4.79^[b].

For `C=C(CON=C(C)c1cccs1)CON=C(C)c1cccs1` (single isomer, unassigned) [compound 77], the logP is 4.84^[b] (isomer B).

Take `C=C(CON=C(C)c1cccc(C)n1)CON=C(N)c1nc(C)cs1` [compound 193]: the logP is 2.70^b].

For `CC(=NOCC(C)CON=C(C)c1nc2ccccc2s1)c1nc2ccccc2s1` (stereo not shown) [Compound 213], the logP is 6.71^[b].

Still in this series, the particulars now being: reversed-phase HPLC column (C 18); HCO2H; HPLC reversed-phase column (C 18), 43° C.; read-out: logP (HCO2H).
For the compound `C/C(=N\OCC(CO/N=C(\C)c1cccc(C)n1)=NO)c1cccc(C)n1` [(2E,9E)-2,10-bis(6-methylpyridin-2-yl)-4,8-dioxa-3,9-diazaundeca-2,9-dien-6-one oxime], the chromatographic logP came to 1.91.

Still in this series, the particulars now being: value marked [a].
In the case of `CC(=NOC[Si](C)(CON=C(C)c1cccc(C)n1)C(C)C)c1cccc(C)n1` [Compound 834], the logP is 6.72^[a].

With `CC(=NOCC(C)CON=C(C)c1ccc2c(n1)CCCC2)c1ccc2c(n1)CCCC2` (stereo not shown) [Compound 304], the logP is 4.69^[a].

Regarding `CC(=NOC(=O)NCCCC(C)CNC(=O)ON=C(C)c1ccc(C)c(C)n1)c1ccc(C)c(C)n1` (stereo not shown) [compound 861], the logP is 2.55^[a].

Consider `C=C(CON=C(C)c1csc(C)n1)CON=C(C)c1csc(C)n1` [compound 522], for which the logP was 3.22^[a].

With `Cc1cccc(C(C#N)=NOCC(C)CON=C(C#N)c2cccc(C)n2)n1` (stereo not shown) [compound 827], the logP was 4.20^[a].

For `CC(=NOCC(C)(C)CON=C(C)c1cccc(Cc2ccccc2)n1)c1cccc(Cc2ccccc2)n1` [Compound 798], the logP is 7.36^[b][a].

For the compound `CCCC(=NOCC(C)CON=C(CCC)c1ccc(C)c(C)n1)c1ccc(C)c(C)n1` (stereo not shown) [Compound 262], the logP was 6.26^[a].

Turning to `CC(=NOCC(C)(C)CON=C(C)c1cccc(C2CC2)n1)c1cccc(C2CC2)n1` [compound 814], the logP is 7.36^[a].

Still in this series, the particulars now being: value marked [b].
As to `CC(=NOCC(C)CON=C(C)c1nc(C)ccc1C)c1nc(C)ccc1C` (single isomer, unassigned) [Compound 267], the logP was 2.5^[b] (isomer B).

For `CC(=NOC[Si](C)(CON=C(C)c1cccc(C)n1)C(C)C)c1cccc(C)n1` [Compound 834], the logP is 6.72^[b].

For the compound `CCC(=NOCC(C)(C)CON=C(C)c1cccc(C)n1)c1ncccc1C` [compound 369], the logP was 4.51^[b].

With `CC(=NOC[C@@H]1O[C@@H]1CON=C(C)c1cccc(C)n1)c1cccc(C)n1` [compound 287], the logP is 2.42^[b].

Take `CCCC(CON=C(C)c1cccc(C)n1)CON=C(C)c1cccc(C)n1` (stereo not shown) [Compound 270]: the logP is 5.14^[b].

Regarding `CC(=NOCC(C)(C)CON=C(C)c1cccc(C(C)C)n1)c1cccc(C)n1` [Compound 491], the logP was 6.87^[b].

Regarding `COc1cccc(C(C)=NOCCCCCCON=C(C)c2cccc(C)n2)c1` [compound 457], the logP is 5.59^[b].

Turning to `CCCC(=NOCCCCON=C(C)c1cccc(C)n1)c1cccc(C)n1` [compound 330], the logP is 4.82^[b].

With `CCC(=NOCCCCON=C(C)c1cccc(C)n1)c1ncccc1C` (single isomer, unassigned) [compound 529], the logP is 2.98^[b] (isomer )A.

As for `CC(=NOCC(C)(C)CON=C(c1ccccc1)c1cccc(C)n1)c1cccc(C)n1` (single isomer, unassigned) [compound 879], the logP was 4.61^[b].

In the case of `CC(=NOCCCCCCON=C(C)c1cc2ccccc2o1)c1cccc(C)n1` [compound 393], the logP was 5.78^[b].

Consider `C=C(CON=C(C)c1cccc(Cl)c1)CON=C(C)c1cccc(C)n1` [compound 469], for which the logP is 5.31^[b].

`CC(=NOCC(C)CON=C(C)c1cccc(C)n1)c1cccnc1` (stereo not shown) [compound 438]: the logP is 2.34^[b].

As for `C=C(CON=C(C)c1cccc(C)n1)CON=C(Cc1ccccc1)c1ncccc1C` [compound 349], the logP is 4.82^[b].

On to `C=C(CON=C(C)c1csc(C)n1)CON=C(C)c1csc(C)n1` [compound 522], for which the logP was 3.22^[b].

In the case of `CC(=NOCCCCON=C(C)c1cccc(C)n1)c1ccc(C)nc1` [compound 382], the logP was 1.90^[b].

Take `CC(=NOCCCCON=C(C)c1cccc(C)n1)c1ccccn1` [Compound 376]: the logP is 3.11^[b].

On to `COc1ccc(C(C)=NOCCCCCCON=C(C)c2cccc(C)n2)cc1OC` [compound 392], for which the logP was 4.91^[b].

As to `CC(=NOCC(C)(C)CON=C(C)c1cccc(Cc2ccccc2)n1)c1cccc(Cc2ccccc2)n1` [Compound 798], the logP was 7.36^[b].

As to `CC(=NOCCCCON=C(C)c1cccc(C)n1)c1cc(C)ccn1` [Compound 373], the logP is 2.66^[b].

As for `C=C(CON=C(C)c1ccncc1)CON=C(C)c1cccc(C)n1` [compound 467], the logP was 1.88^[b].

Consider `CC(=NOCCCCON=C(c1cccc(C)n1)C(C)C)c1cccc(C)n1` [compound 334], for which the logP was 4.72^[b] (isomer B).

For the compound `CC(=NOCCCCON=C(C)c1nc(C)c(C)s1)c1cccc(C)n1` [compound 377], the logP was 4.62^[b].

On to `C=C(CON=C(C)c1cccc(C)n1)CON=C(C)c1cncc(C)n1` [compound 480], for which the logP was 3.46^[b].

The series is the same for the next values; noted with them: value marked [c].
Turning to `CC(=NOC[Si](C)(CON=C(C)c1cccc(C)n1)C(C)C)c1cccc(C)n1` [Compound 834], the logP is 7.35^[c].

Regarding `CC(=NOCC(C)(C)CON=C(c1ccccc1)c1cccc(C)n1)c1cccc(C)n1` (single isomer, unassigned) [compound 879], the logP was 4.52^[c].
